Paper PMC9785441, “A Broad Spectrum Antiparasitic Activity of Organotin (IV) Derivatives and Its Untargeted Proteomic Profiling Using Leishmania donovani” (Pathogens, 2022)

Tests used:
[1] = system: G. lamblia (WB strain) trophozoites; test: G. lamblia trophozoite viability assay (CellTiter-Glo); type: cell-based, Giardia lamblia; conditions: 48 h
Description: Trophozoites of G. lamblia (WB strain) were maintained in vitro as described in TYI-S-33 medium supplemented with penicillin (100 U/mL) and streptomycin (100 µg/mL). Cells were harvested during the logarithmic phase of the growth for antiparasitic assessment. Test compounds were serially diluted and transferred to a white solid bottomed 96-well tissue culture plate (E&K Scientific, Swedesboro, NJ, USA) followed by addition of 5000 G. lamblia trophozoites for a final volume of 100 µL of TYI-S-33 medium and a final concentration of compounds ranging from 50.0 to 0.39 µM. Metronidazole was used as a positive control and assay plates were incubated for 48 h at 37 °C in the GasPak EZ Anaerobic Gas Generating Pouch System (VWR). Parasite viability was measured in triplicate using the CellTiter-Glo luminescence kit in an Envision plate reader. EC50 values were obtained using the GraphPad Prism 9 Software.

[2] = system: E. histolytica HM1:IMSS trophozoites; test: E. histolytica trophozoite viability assay (CellTiter-Glo); type: cell-based, Entamoeba histolytica; conditions: 48 h
Description: Trophozoites of E. histolytica HM1:IMSS were maintained in vitro as described in TYI-S-33 medium supplemented with penicillin (100 U/mL) and streptomycin (100 µg/mL). Test compounds were serially diluted and transferred to a white solid bottomed 96-well tissue culture plate (E&K Scientific, Swedesboro, NJ, USA) followed by addition of 5000 E. histolytica trophozoites per well for a final volume of 100 µL TYI-S-33 medium and a final concentration of compounds ranging from 50 to 0.39 µM. Metronidazole were used as positive control and assay plates were incubated for 48 h at 37 °C. The plates maintained kept anaerobically using the GasPak EZ Anaerobic Gas Generating Pouch System (VWR). Parasite viability was measured in triplicate using the CellTiter-Glo luminescence kit (Promega G9243) in an Envision plate reader (Perkin Elmer, Waltham, MA, USA). EC50 values were obtained using GraphPad Prism 9 Software.

[3] = system: N. fowleri (KUL strain) trophozoites; test: N. fowleri trophozoite viability assay (CellTiter-Glo); type: cell-based, Naegleria fowleri; conditions: 48 h
Description: N. fowleri (KUL strain) was cultured in Nelson’s medium supplemented with 10% FBS and kept at 37 °C. For all experiments, trophozoites were harvested during the logarithmic phase of growth. Test compounds were serially diluted and transferred to a white solid bottomed 96-well tissue culture plate (E&K Scientific, Swedesboro, NJ, USA) followed by addition of 10,000 N. fowleri trophozoites in Nelson’s medium in a final volume of 100 µL and a final concentration of compounds ranging from 50 to 0.39 µM. Amphotericin B was used as positive control and assay plates were incubated for 48 h at 37 °C. Parasite viability was measured as described for E. histolytica and G. lamblia. EC50 values were obtained using the GraphPad Prism 9 Software.

[4] = system: T. b. brucei Lister 427 bloodstream forms; test: T. brucei bloodstream form viability assay (SYBR Green); type: cell-based, Trypanosoma brucei; conditions: for EC50: bloodstream forms, 72 h
Description: Bloodstream forms of T. b. brucei Lister 427 were cultured in complete HMI-9 medium in T25 suspension culture flasks (Thermo Scientific, Cat. 12-566-84) and maintained at 37 °C and 5% CO2. Trypanosomes were kept in log-phase growth and passaged every 48 h. […] Pentamidine were used as a positive control for T. brucei assay. Compounds were diluted with fresh HMI-9 medium (99 µL/well). Parasites in log-phase were suspended at 2 × 10^5 parasites/mL in HMI-9 medium and then added to each well (100 µL) to give 2 × 10^4 trypanosomes/well. Assay plates were incubated at 37 °C and 5% CO2 for 72 h. Parasite lysate was obtained by addition of 50 µL/well of lysis solution (0.012% saponin, 0.12% Triton X-100, 7.5 mM ETDA, 30 mM Tris, pH 7.5) containing 0.3 µL/mL SYBR Green I (10,000× in DMSO; Invitrogen, Carlsbad, CA, USA). Assay plates were incubated in the dark for 1 h at room temperature. Fluorescence was measured at 485 nm excitation and 535 nm emission wavelengths using an EnVision multilabel plate reader (PerkinElmer, Waltham, MA, USA). In each assay plate, parasite viability was normalized relative to positive (pentamidine) and negative (0.5% DMSO) controls in each assay plate. Assays were performed in biological and technical duplicates, and dose–response and EC50 data were generated with GraphPad Prism 9 using a sigmoidal four parameter logistic curve.

[5] = system: B10R cells; test: Cytotoxicity to B10R host cells (nuclei count in the amastigote assay); type: cell-based; conditions: mouse monocyte host cells, 72 h
Description: For the intracellular amastigote stage assay, L. donovani was incubated at a density of 1 × 10^6 parasites/mL for six days at 29 °C before infection to enrich the proportion of metacyclic promastigotes. B10R monocyte cell lines were cultured in RPMI supplemented with 10% FBS and 1%penicillin/streptomycin at 37 °C in 5% CO2. After 72 h, cells were counted with a hemocytometer and mixed with the six-day-old parasites. […] Plates were incubated at 37 °C and 5% CO2 for 72 h. Cultures were then fixed with 4% formaldehyde solution for 30 min and stained with 0.5 µg/mL DAPI (diamidino-2-phenylindole). Plates were then imaged using an ImageXpress Micro XLS automated high content imager (Molecular Devices, San Jose, CA, USA) using a 10× air objective. A custom image analysis module generated in ImageXpress was used to count the nuclei of host and parasite cells. EC50 values were obtained using the GraphPad Prism 9 Software with biological triplicates.

Compound | EC50 ([1]; Giardia duodenalis) | EC50 ([2]; Entamoeba histolytica) | EC50 ([3]; Naegleria fowleri) | EC50 ([4]; Trypanosoma brucei) | EC50 [1] | CC50 [5] | EC50 [3] | EC50 [4] | EC50 [2] | T. brucei eliminated ([4]; 5 µM)
COc1ccc(NC(=O)CCC(=O)O)cc1 [MS26, 4-(4-methoxyphenylamino)-4 oxobutanoic acid] | > 10 µM | > 10 µM | > 10 µM | > 4 µM | – | – | – | – | – | –
CCC[CH2][Sn]([CH2]CCC)([O]C(=O)CCC(=O)Nc1ccc(OC)cc1)[O]C(=O)CCC(=O)Nc1ccc(OC)cc1 [MS26Bu2] | – | – | – | – | > 10 µM | 1.06 µM | > 10 µM | 0.29 µM | – | –
CCC[CH2][Sn]([CH2]CCC)([CH2]CCC)[O]C(=O)CCC(=O)Nc1ccc(OC)cc1 [MS26Bu3] | – | – | – | – | 1.03 µM | 0.17 µM | 1.5 µM | 0.05 µM | 8.7 µM | –
CCC[CH2][Sn]([Cl])([Cl])[O]C(=O)CCC(=O)Nc1ccc(OC)cc1 [MS26BuSnCl2] | – | – | – | – | > 10 µM | 0.62 µM | > 10 µM | > 4 µM | – | –
COc1ccc(NC(=O)CCC(=O)[O][Sn]([CH]2CCCCC2)([CH]2CCCCC2)[CH]2CCCCC2)cc1 [MS26Cy3] | – | – | – | – | > 10 µM | 0.11 µM | 7.5 µM | 0.08 µM | – | –
C[CH2][Sn]([CH2]C)([CH2]C)[O]C(=O)CCC(=O)Nc1ccc(OC)cc1 [MS26Et3] | – | – | – | – | 8 µM | – | 1.4 µM | 0.09 µM | 5.6 µM | > 99%
COc1ccc(NC(=O)CCC(=O)[O][Sn]([CH3])([CH3])[CH3])cc1 [MS26Me3] | – | – | – | – | > 10 µM | 4.87 µM | > 10 µM | > 4 µM | – | –
COc1ccc(NC(=O)CCC(=O)[O-])cc1.[Na+] [MS26Na, sodium 4-(4-methoxyphenylamino)-4 oxobutanoate] | – | – | – | – | > 10 µM | 4.55 µM | > 10 µM | > 4 µM | – | –
COc1ccc(NC(=O)CCC(=O)[O][Sn]([c]2ccccc2)([c]2ccccc2)[c]2ccccc2)cc1 [MS26Ph3] | – | – | – | – | 5.3 µM | 0.29 µM | 3.2 µM | 0.09 µM | – | –
C=[CH][Sn]([CH]=C)([O]C(=O)CCC(=O)Nc1ccc(OC)cc1)[O]C(=O)CCC(=O)Nc1ccc(OC)cc1 [MS26vin2] | – | – | – | – | > 10 µM | > 20 µM | > 10 µM | > 4 µM | – | –
